Measurements as given in ChEMBL document CHEMBL6071211, “Invention of VH-937, a Potent HIV-1 Maturation Inhibitor with the Potential for Infrequent Oral Dosing in Humans” (ACS Med Chem Lett, 2024).
pEC50, pIC50: −log10 of the molar value. ≈ marks a conversion by molar mass, not a printed value.

How the values were obtained:
[1] = AUC (infinity) in rat at 1 mg/kg, iv; format: ADME, organism-based; conditions: in vivo
[2] = tested on: Human immunodeficiency virus 1; assay: In vitro antiviral activity against fully replicating wild type HIV1 harboring NLRepRluc-P373S by multicycle assay; format: functional, organism-based
[3] = tested on: Human immunodeficiency virus 1; assay: In vitro antiviral activity against fully replicating HIV1 harboring Gag V370A/deltaV371 mutant by multicycle assay; format: functional, organism-based
[4] = tested on: Human immunodeficiency virus 1; assay: In vitro antiviral activity against fully replicating pseudotype HIV1 harboring Gag V370A mutant assessed as maximum percent inhibition by single cycle assay relative to control; format: functional
[5] = Metabolic stability in mouse liver microsomes assessed as half life; format: ADME, Microsome
[6] = tested on: Human immunodeficiency virus 1; assay: In vitro antiviral activity against fully replicating HIV1 harboring Gag V370A mutant by multicycle assay; format: functional, organism-based
Cytochrome P450 2D6 = Cytochrome P450 2D6 (Homo sapiens, UniProt P10635); assay: Inhibition of CYP2D6 (unknown origin); format: ADME
Sequence of Cytochrome P450 2D6 (P10635 whole entry): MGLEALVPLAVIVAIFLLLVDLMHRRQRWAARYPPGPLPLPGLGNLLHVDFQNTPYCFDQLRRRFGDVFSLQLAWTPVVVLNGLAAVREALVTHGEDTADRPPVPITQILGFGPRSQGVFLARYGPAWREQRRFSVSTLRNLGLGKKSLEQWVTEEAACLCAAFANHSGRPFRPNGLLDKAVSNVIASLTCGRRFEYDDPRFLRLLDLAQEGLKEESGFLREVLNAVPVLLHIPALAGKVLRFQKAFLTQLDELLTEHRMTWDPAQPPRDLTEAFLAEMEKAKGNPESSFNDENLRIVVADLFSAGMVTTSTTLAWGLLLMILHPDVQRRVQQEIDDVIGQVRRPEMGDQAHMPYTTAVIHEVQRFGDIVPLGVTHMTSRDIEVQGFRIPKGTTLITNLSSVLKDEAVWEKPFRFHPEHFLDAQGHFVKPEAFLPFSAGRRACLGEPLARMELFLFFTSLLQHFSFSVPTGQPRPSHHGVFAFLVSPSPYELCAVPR

[7] = Metabolic stability in dog liver microsomes assessed as half life; format: ADME, Canis lupus familiaris, Microsome
[8] = Half life in normal healthy human volunteers plasma at 10 mg for 15 days and followed by 30 mg; format: ADME, cell-free; conditions: time 15 day
Cytochrome P450 2C19 = Cytochrome P450 2C19 (Homo sapiens, UniProt P33261); assay: Inhibition of CYP2C19 (unknown origin); format: ADME
Sequence of Cytochrome P450 2C19 (P33261 whole entry): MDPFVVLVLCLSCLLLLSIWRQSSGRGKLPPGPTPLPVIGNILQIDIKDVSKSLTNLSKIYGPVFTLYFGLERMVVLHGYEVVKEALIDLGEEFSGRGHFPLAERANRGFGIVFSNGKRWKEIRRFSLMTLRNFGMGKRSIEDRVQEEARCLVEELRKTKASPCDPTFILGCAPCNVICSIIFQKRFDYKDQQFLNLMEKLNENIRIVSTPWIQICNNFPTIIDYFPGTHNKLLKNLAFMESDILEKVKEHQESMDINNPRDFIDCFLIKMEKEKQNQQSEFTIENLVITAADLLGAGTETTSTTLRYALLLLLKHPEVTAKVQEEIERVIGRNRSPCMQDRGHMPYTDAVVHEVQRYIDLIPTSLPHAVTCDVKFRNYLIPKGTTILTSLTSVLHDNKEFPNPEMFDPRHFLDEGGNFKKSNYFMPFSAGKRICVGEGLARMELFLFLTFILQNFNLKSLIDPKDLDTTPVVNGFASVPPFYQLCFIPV

[9] = tested on: Human immunodeficiency virus 1; assay: In vitro antiviral activity against fully replicating wild type pseudotype HIV1 NLRepRluc-P373S by single cycle assay; format: functional, organism-based
[10] = tested on: Human immunodeficiency virus 1; assay: In vitro antiviral activity against fully replicating HIV1 harboring Gag V370A mutant assessed as maximum percent inhibition by multicycle assay relative to control; format: functional
[11] = tested on: Human immunodeficiency virus 1; assay: In vitro antiviral activity against fully replicating HIV1 harboring Gag A364V mutant assessed as maximum percent inhibition by multicycle assay relative to control; format: functional
[12] = AUC (infinity) in dog at 2 mg/kg, iv; format: ADME, organism-based, Canis lupus familiaris; conditions: in vivo
[13] = tested on: Human immunodeficiency virus 1; assay: In vitro antiviral activity against fully replicating wild type pseudotype HIV1 NLRepRluc-P373S assessed as maximum percent inhibition by single cycle assay relative to control; format: functional
[14] = Elimination half life in mouse at 5 mg/kg, po; format: ADME, organism-based; conditions: in vivo, read-out: beta t1/2 (converted)
[15] = tested on: Human immunodeficiency virus 1; assay: Ratio of EC50 for antiviral activity against fully replicating pseudotype HIV1 harboring Gag deltaV370 mutant by single cycle assay to EC50 for antiviral activity against fully replicating wild type pseudotype HIV1 NLRepRluc-P373S by single cycle assay; format: functional
[16] = tested on: Human immunodeficiency virus 1; assay: In vitro antiviral activity against fully replicating pseudotype HIV1 harboring Gag V3621/V370A mutant by single cycle assay; format: functional, organism-based
[17] = Aqueous solubility of compound; format: physicochemical; conditions: buffer
[18] = tested on: Human immunodeficiency virus 1; assay: In vitro antiviral activity against HIV1 subtype A clinical isolate I-2496; format: functional, organism-based; conditions: Human immunodeficiency virus 1, I-2496
[19] = tested on: Human immunodeficiency virus 1; assay: In vitro antiviral activity against fully replicating pseudotype HIV1 harboring Gag deltaV370 mutant assessed as maximum percent inhibition by single cycle assay relative to control; format: functional
[20] = Aqueous solubility of compound in fasted state simulated intestinal fluid (FaSSIF) at pH 6.6; format: physicochemical

Compound: C=C(C)[C@@H]1CC[C@]2(NCCN3CCS(=O)(=O)CC3)CC[C@]3(C)[C@H](CC[C@@H]4[C@@]5(C)CC=C(C6=CC[C@](COc7ncccc7C#N)(C(=O)O)CC6)C(C)(C)[C@@H]5CC[C@]43C)[C@@H]12
- AUC(0-inf) [1]: 16.1 µM·h
- pEC50 [2]: 8.70
- pEC50 [3]: 8.30
- Imax [4]: 99%
- half-life [5]: > 2 h
- pEC50 [6]: 8.40
- pIC50 (Cytochrome P450 2D6): < 5.36
- half-life [7]: > 2 h
- half-life [8]: 67 h
- pIC50 (Cytochrome P450 2C19): < 5.36
- pEC50 [9]: 8.30
- Imax [10]: 98.5%
- Imax [11]: 95.2%
- AUC(0-inf) [12]: 99.8 µM·h
- Imax [13]: 99%
- half-life [14]: 14.5 h
- Ratio EC50 [15]: 2.4
- pEC50 [16]: 7.96
- solubility [17]: < 1 mg/mL
- pEC50 [18]: 8.52
- Imax [19]: 100%
- solubility [20]: 19 mg/mL (≈ 23 mM)
